Assay results from PMC9721423, “Novel benzo chromene derivatives: design, synthesis, molecular docking, cell cycle arrest, and apoptosis induction in human acute myeloid leukemia HL-60 cells” (Journal of Enzyme Inhibition and Medicinal Chemistry, 2022).
Read-outs that look alike come from different tables or passages of the source.

Key:
CDK-2 = molecular target: T1, CDK-2 (Homo sapiens, UniProt P24941); assay: Kinase-Glo MAX luminescence kinase assay, CDK-2/cyclin A2 kit; format: biochemical; conditions: read-out: CDK-2/ cyclin A2 IC50 (μM) ± SD
T1 construct: gene CDK2; with cyclin A2

CAKI-1 = assay: cells; parameters: species or system NCI-60 human tumour cell lines; NCI-60 five-dose growth inhibition screen, sulforhodamine B protein stain; conditions: Homo sapiens, CAKI-1, 48 h
Procedure, shortened: (§1)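 NCI60 protocol: compounds (DMSO:glycerol stocks) tested at a single concentration of 10^−5 M for 48 h, growth read by sulforhodamine B protein staining as percent growth. For selected compounds, dose–response curves gave GI50, TGI and LC50; selectivity taken as full-panel MG-MID divided by subpanel MG-MID.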

HL-60(TB) = assay: cells; parameters: species or system NCI-60 human tumour cell lines; NCI-60 five-dose growth inhibition screen, sulforhodamine B protein stain; conditions: Homo sapiens, HL-60, 48 h
Procedure, shortened: as §1

HS 578T = assay: cells; parameters: species or system NCI-60 human tumour cell lines; NCI-60 five-dose growth inhibition screen, sulforhodamine B protein stain; conditions: Homo sapiens, Hs-578T, 48 h
Procedure, shortened: as §1

MDA-MB-468 = assay: cells; parameters: species or system NCI-60 human tumour cell lines; NCI-60 five-dose growth inhibition screen, sulforhodamine B protein stain; conditions: Homo sapiens, MDA-MB-468, 48 h
Procedure, shortened: as §1

OVCAR-4 = assay: cells; parameters: species or system NCI-60 human tumour cell lines; NCI-60 five-dose growth inhibition screen, sulforhodamine B protein stain; conditions: Homo sapiens, OVCAR-4, 48 h; read-out: GI50 5a
Procedure, shortened: as §1

TK-10 = assay: cells; parameters: species or system NCI-60 human tumour cell lines; NCI-60 five-dose growth inhibition screen, sulforhodamine B protein stain; conditions: Homo sapiens, TK-10, 48 h; read-out: GI50 5a
Procedure, shortened: as §1

UACC-257 = assay: cells; parameters: species or system NCI-60 human tumour cell lines; NCI-60 five-dose growth inhibition screen, sulforhodamine B protein stain; conditions: Homo sapiens, UACC-257, 48 h; read-out: GI50 5a
Procedure, shortened: as §1

UO-31 = assay: cells; parameters: species or system NCI-60 human tumour cell lines; NCI-60 five-dose growth inhibition screen, sulforhodamine B protein stain; conditions: Homo sapiens, UO-31, 48 h; read-out: GI50 5a
Procedure, shortened: as §1

SMILES: N=C(NO)C1=C(N)Oc2c(ccc3ccccc23)C1c1ccccc1 (centres unmarked) [5a, 2-Amino-4-phenyl-N-hydroxy-4H-benzo[h]chromene-3-carboxamidine]
- IC50 (CDK-2): 0.171 µM
- GI50 (CAKI-1; read-out: GI50 5a): 100 nM
- GI50 (HL-60(TB); read-out: GI50 5a): 240 nM
- GI50 (HS 578T; read-out: GI50 5a): 230 nM
- GI50 (MDA-MB-468; read-out: GI50 5a): 1990 nM
- GI50 (OVCAR-4): 760 nM
- GI50 (TK-10): 16800 nM
- GI50 (UACC-257): 18100 nM
- GI50 (UO-31): 440 nM

SMILES: CC(=O)NC1=C(C#N)C(c2ccccc2)c2ccc3ccccc3c2O1 (centres unmarked) [6a, N-(3-Cyano-4-phenyl-4H-benzo[h]chromen-2-yl)acetamide]
- IC50 (CDK-2): 0.301 µM
- GI50 (CAKI-1; read-out: GI50 6a): 340 nM
- GI50 (HL-60(TB); read-out: GI50 6a): 290 nM
- GI50 (HS 578T; read-out: GI50 6a): 360 nM
- GI50 (MDA-MB-468; read-out: GI50 6a): 240 nM
